Legend:
[1] = tested on: intracranial C6 glioma bearing mice; assay: Anti-glioma efficacy; format: in vivo, Balb/c mice; settings: versus Saline; PTX 3 mg/kg i.v. x 6; n = 9
[2] = In vitro drug release by dialysis; format: physicochemical; settings: dialysis (MWCO 8-14 kDa), PBS pH 7.4 with 0.1% Tween 80, 37 °C, 48 h, HPLC, n = 3
C6 cells = assay: Annexin V-FITC/PI apoptosis study; format: cell-based, murine; settings: PTX 1 μg/mL, 24 h, flow cytometer, n = 3, mean ± SD

CC(=O)O[C@H]1C(=O)[C@@]2(C)[C@H]([C@H](OC(=O)c3ccccc3)[C@]3(O)C[C@H](OC(=O)[C@H](O)[C@@H](NC(=O)c4ccccc4)c4ccccc4)C(C)=C1C3(C)C)[C@]1(OC(C)=O)CO[C@@H]1C[C@@H]2O [free PTX, Paclitaxel]
Increased survival time [1]: 53% | PTX release behavior [2]: ≤ 8 h | apoptosis and necrosis rates of C6 cells (C6 cells): 75.65 ± 1.77%

Reference: paper PMC4729767 (Theranostics, 2016)
